PubChem BioAssay AID1963979 (Molecular Pharmacology Branch, DTP, NCI, 2024)

System: 361931-004-R-J1-PDC multicell spheroid viability
Assay: Anticancer human tumor 361931-004-R-J1-PDC patient-derived colon adenocarcinoma cell line growth inhibition [PI3K]
Conditions: for IC50: curve of first compound; for viability, T/C: stronger effect = lower value
Method in brief: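 Combination activity was assessed by viability in multicellular tumor spheroids carrying HUVEC and MSC components. Agents were tested with PI3K inhibitors from a Cmax-based top dose (or 10 microM) downward in half-log increments.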

[1] = second compound 0.00316 µM, first compound 0.0316 µM
[2] = second compound 0.00316 µM, first compound 0.1 µM
[3] = second compound 0.00316 µM, first compound 0.316 µM
[4] = second compound 0.00316 µM, first compound 1 µM
[5] = second compound 0.00316 µM, first compound 3.16 µM
[6] = second compound 0.00316 µM, first compound 10 µM
[7] = second compound 0.01 µM, first compound 0.0316 µM
[8] = second compound 0.01 µM, first compound 0.1 µM
[9] = second compound 0.01 µM, first compound 0.316 µM
[10] = second compound 0.01 µM, first compound 1 µM
[11] = second compound 0.01 µM, first compound 3.16 µM
[12] = second compound 0.01 µM, first compound 10 µM
[13] = second compound 0.0316 µM, first compound 0.0316 µM
[14] = second compound 0.0316 µM, first compound 0.1 µM
[15] = second compound 0.0316 µM, first compound 0.316 µM
[16] = second compound 0.0316 µM, first compound 1 µM
[17] = second compound 0.0316 µM, first compound 3.16 µM
[18] = second compound 0.0316 µM, first compound 10 µM
[19] = second compound 0.1 µM, first compound 0.0316 µM
[20] = second compound 0.1 µM, first compound 0.1 µM
[21] = second compound 0.1 µM, first compound 0.316 µM
[22] = second compound 0.1 µM, first compound 1 µM
[23] = second compound 0.1 µM, first compound 3.16 µM
[24] = second compound 0.1 µM, first compound 10 µM
[25] = second compound 0.316 µM, first compound 0.0316 µM
[26] = second compound 0.316 µM, first compound 0.1 µM
[27] = second compound 0.316 µM, first compound 0.316 µM
[28] = second compound 0.316 µM, first compound 1 µM
[29] = second compound 0.316 µM, first compound 3.16 µM
[30] = second compound 0.316 µM, first compound 10 µM
[31] = second compound 1 µM, first compound 0.0316 µM
[32] = second compound 1 µM, first compound 0.1 µM
[33] = second compound 1 µM, first compound 0.316 µM
[34] = second compound 1 µM, first compound 1 µM
[35] = second compound 1 µM, first compound 3.16 µM
[36] = second compound 1 µM, first compound 10 µM
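Also: spheroids exposed to agents for seven days before readout.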

CCCS(=O)(=O)Nc1ccc(F)c(C(=O)c2c[nH]c3ncc(-c4ccc(Cl)cc4)cc23)c1F + CC(Nc1ccc2c(c1)OCCn1cc(N3C(=O)OCC3C(F)F)nc1-2)C(N)=O
IC50 (second compound 0.00316 µM): 5.17 µM | IC50 (second compound 0.01 µM): 5.13 µM | IC50 (second compound 0.0316 µM): 5.27 µM | IC50 (second compound 0.1 µM): 4.34 µM | IC50 (second compound 0.316 µM): 4.03 µM | IC50 (second compound 1 µM): 1.74 µM | viability, T/C [1]: 102% | viability, T/C [2]: 100% | viability, T/C [3]: 84.9% | viability, T/C [4]: 82.8% | viability, T/C [5]: 83.8% | viability, T/C [6]: 4.25% | viability, T/C [7]: 101% | viability, T/C [8]: 94.7% | viability, T/C [9]: 81.8% | viability, T/C [10]: 83.6% | viability, T/C [11]: 83.4% | viability, T/C [12]: 4.05% | viability, T/C [13]: 92.3% | viability, T/C [14]: 86% | viability, T/C [15]: 85.5% | viability, T/C [16]: 83% | viability, T/C [17]: 87.2% | viability, T/C [18]: 3.87% | viability, T/C [19]: 88.5% | viability, T/C [20]: 81.5% | viability, T/C [21]: 89.1% | viability, T/C [22]: 73% | viability, T/C [23]: 70.2% | viability, T/C [24]: 4.14% | viability, T/C [25]: 86.7% | viability, T/C [26]: 72.6% | viability, T/C [27]: 63% | viability, T/C [28]: 73.5% | viability, T/C [29]: 62.5% | viability, T/C [30]: 3.6% | viability, T/C [31]: 74.4% | viability, T/C [32]: 65.7% | viability, T/C [33]: 70% | viability, T/C [34]: 50.3% | viability, T/C [35]: 46.6% | viability, T/C [36]: 2.59%

Cn1ncc(Cl)c1-c1cc(C(=O)NC(CN)Cc2cccc(F)c2)sc1Cl (stereo unspecified) + COc1c(OCCCN2CCOCC2)ccc2c3n(c(=NC(=O)c4cnc(N)nc4)nc12)CCN3
IC50 (second compound 0.00316 µM): 2.52 µM | IC50 (second compound 0.01 µM): 1.91 µM | IC50 (second compound 0.0316 µM): 1.82 µM | IC50 (second compound 0.1 µM): 1.57 µM | IC50 (second compound 0.316 µM): 0.0491 µM | IC50 (second compound 1 µM): < 0.0316 µM | viability, T/C [1]: 104% | viability, T/C [2]: 111% | viability, T/C [3]: 100% | viability, T/C [4]: 80.6% | viability, T/C [5]: 42.5% | viability, T/C [6]: 27.4% | viability, T/C [7]: 104% | viability, T/C [8]: 102% | viability, T/C [9]: 94.8% | viability, T/C [10]: 66.7% | viability, T/C [11]: 37.2% | viability, T/C [12]: 26.7% | viability, T/C [13]: 94.9% | viability, T/C [14]: 101% | viability, T/C [15]: 90.6% | viability, T/C [16]: 61.6% | viability, T/C [17]: 40.1% | viability, T/C [18]: 25.6% | viability, T/C [19]: 83.4% | viability, T/C [20]: 83.9% | viability, T/C [21]: 74.2% | viability, T/C [22]: 63% | viability, T/C [23]: 31.6% | viability, T/C [24]: 19% | viability, T/C [25]: 54.2% | viability, T/C [26]: 43.5% | viability, T/C [27]: 40.5% | viability, T/C [28]: 35.8% | viability, T/C [29]: 30.9% | viability, T/C [30]: 15.8% | viability, T/C [31]: 19.7% | viability, T/C [32]: 19.4% | viability, T/C [33]: 18.7% | viability, T/C [34]: 20.3% | viability, T/C [35]: 19.7% | viability, T/C [36]: 10.3%

CC(C)n1nc(-c2ccc3oc(N)nc3c2)c2c(N)ncnc21 + COc1c(OCCCN2CCOCC2)ccc2c3n(c(=NC(=O)c4cnc(N)nc4)nc12)CCN3
IC50 (second compound 0.00316 µM): > 0.1 µM | IC50 (second compound 0.01 µM): > 0.1 µM | IC50 (second compound 0.0316 µM): 0.0783 µM | IC50 (second compound 0.1 µM): 0.0518 µM | IC50 (second compound 0.316 µM): 0.00451 µM | IC50 (second compound 1 µM): < 0.000316 µM | viability, T/C (second compound 0.00316 µM, first compound 0.000316 µM): 99.9% | viability, T/C (second compound 0.00316 µM, first compound 0.001 µM): 108% | viability, T/C (second compound 0.00316 µM, first compound 0.00316 µM): 101% | viability, T/C (second compound 0.00316 µM, first compound 0.01 µM): 106% | viability, T/C [1]: 108% | viability, T/C [2]: 77.5% | viability, T/C (second compound 0.01 µM, first compound 0.000316 µM): 106% | viability, T/C (second compound 0.01 µM, first compound 0.001 µM): 102% | viability, T/C (second compound 0.01 µM, first compound 0.00316 µM): 99.3% | viability, T/C (second compound 0.01 µM, first compound 0.01 µM): 100% | viability, T/C [7]: 99.2% | viability, T/C [8]: 57.6% | viability, T/C (second compound 0.0316 µM, first compound 0.000316 µM): 94.1% | viability, T/C (second compound 0.0316 µM, first compound 0.001 µM): 98.7% | viability, T/C (second compound 0.0316 µM, first compound 0.00316 µM): 89.2% | viability, T/C (second compound 0.0316 µM, first compound 0.01 µM): 94.2% | viability, T/C [13]: 85.6% | viability, T/C [14]: 40.4% | viability, T/C (second compound 0.1 µM, first compound 0.000316 µM): 80.8% | viability, T/C (second compound 0.1 µM, first compound 0.001 µM): 85.5% | viability, T/C (second compound 0.1 µM, first compound 0.00316 µM): 79% | viability, T/C (second compound 0.1 µM, first compound 0.01 µM): 72.8% | viability, T/C [19]: 62.9% | viability, T/C [20]: 34.1% | viability, T/C (second compound 0.316 µM, first compound 0.000316 µM): 64.7% | viability, T/C (second compound 0.316 µM, first compound 0.001 µM): 56.3% | viability, T/C (second compound 0.316 µM, first compound 0.00316 µM): 54.2% | viability, T/C (second compound 0.316 µM, first compound 0.01 µM): 43.9% | viability, T/C [25]: 35.5% | viability, T/C [26]: 22.4% | viability, T/C (second compound 1 µM, first compound 0.000316 µM): 20.8% | viability, T/C (second compound 1 µM, first compound 0.001 µM): 20.7% | viability, T/C (second compound 1 µM, first compound 0.00316 µM): 22.3% | viability, T/C (second compound 1 µM, first compound 0.01 µM): 20.9% | viability, T/C [31]: 20.2% | viability, T/C [32]: 10.6%
